Test results published in US10039772B2, “Methods and compositions for treating alcohol use disorders” (priority 2015, dated 2018).
Counter-ions that a name gives are not always drawn. Like-named read-outs stand apart in the source and are kept apart here.

Columns and labels:
[1] = target: Pannexin 1 (Homo sapiens, UniProt Q96RD7); conditions: cited from earlier work
[2] = test system: C57BL/6J mice; assay: Mouse drinking in the dark (DID) binge-like drinking; assay type: in vivo
Method: The DID paradigm capitalizes on the circadian rhythm in drinking of mice utilizing a discrete time of exposure to ethanol to obtain pharmacologically significant ethanol drinking in a four-day procedure (114, 115). It is considered a preclinical model of binge alcohol drinking (116). Blood ethanol levels of C57BL/6J mice in DID are reliably over 100 mg % following the final drinking bout and produce behavioral intoxication in C57BL/6J mice (115). In the DID paradigm, the water bottle is replaced with a bottle containing 20% ethanol for 2 hours in the home cage 3 hours after lights go off. The design involves 3 daily drinking sessions of 2 hours and a fourth of 4 hours (114, 115).

[3] = test system: 11β-HSD1, 11β-HSD2; conditions: cited from earlier work
[4] = 11β-HSD isozyme specificity per cited reference

Chain of Pannexin 1 (Q96RD7 whole entry, species assumed): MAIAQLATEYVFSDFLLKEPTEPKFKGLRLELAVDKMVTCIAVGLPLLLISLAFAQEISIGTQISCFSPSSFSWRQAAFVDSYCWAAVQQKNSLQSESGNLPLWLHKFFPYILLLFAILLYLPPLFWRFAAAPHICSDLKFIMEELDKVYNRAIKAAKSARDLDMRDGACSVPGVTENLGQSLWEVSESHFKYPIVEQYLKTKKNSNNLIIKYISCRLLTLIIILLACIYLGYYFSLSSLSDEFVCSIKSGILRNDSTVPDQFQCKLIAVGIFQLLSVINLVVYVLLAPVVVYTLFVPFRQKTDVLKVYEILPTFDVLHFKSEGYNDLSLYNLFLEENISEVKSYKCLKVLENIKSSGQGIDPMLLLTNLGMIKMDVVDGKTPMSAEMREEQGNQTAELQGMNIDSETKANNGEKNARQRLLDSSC

In the case of “280: mimetic peptide SRPTEKTIFII [Number 280]”, the “inhibition of Pannexin 1” value [1] is given as “inhibited”.
For “281: mimetic peptide GHGDPLHLEEVKC [Number 281]”, the “inhibition of Pannexin 1” value [1] is given as “inhibited”.
In the case of “282: mimetic peptide SSFSWRQAAFVDS [Number 282]”, the “inhibition of Pannexin 1” value [1] is given as “inhibited”.
For “283: mimetic peptide WRQAAFVDSY [Number 283]”, the “inhibition of Pannexin 1” value [1] is listed as “inhibited”.
For `Nc1ncnc2c1ncn2[C@@H]1O[C@H](COP(=O)(O)OP(=O)(O)OP(=O)(O)O)[C@@H](O)[C@H]1O` [ATP], the “inhibition of Pannexin 1” value [1] is given as “inhibits”.
In the case of `CC1(C)[C@@H](OC(=O)CCC(=O)O)CC[C@]2(C)[C@H]3C(=O)C=C4[C@@H]5C[C@@](C)(C(=O)O)CC[C@]5(C)CC[C@@]4(C)[C@]3(C)CC[C@@H]12` [Number 4, 18α-glycyrrhetinic acid 3β-O-hemisuccinate], the “time course of the effect on ethanol intake within the DID session” value ([2]; first 2 h vs whole 4 h session) is reported as “more pronounced in the first 2 hours” and the “ethanol intake in the DID paradigm” value ([2]; mice, 4 h drinking session, vs saline vehicle) is reported as “reduce”.
In the case of `N#Cc1ncccc1CSc1nc(O)c(C#N)c2c1COCC2` [Number 70], the Specificity [3] is given as 11β- HSD1 > 2.
For `Cc1ccc(-c2cccc(C(=O)N3CCCC(C)(C)C3)n2)cc1F` [Number 71], the Specificity [3, 4] is given as 11β- HSD1 > 2.
In the case of `Cc1c(Cl)cccc1Oc1cccn2c(C34CCC(O)(CC3)CC4)nnc12` [Number 72], the Specificity [3, 4] is listed as 11β- HSD1 > 2.
In the case of `O=C(O)CC1C2CC3CC(C2)CC1C3` (stereo not shown) [Number 73], the Specificity [3, 4] is given as 11β- HSD1 > 2.
In the case of `O=C(O)CC1(c2ccc(F)cc2)C2CCCC1CCC2` (stereo not shown) [Number 74], the Specificity [3, 4] is listed as 11β- HSD1 > 2.
In the case of `O[C@]12CC[C@](c3nnc4c(Oc5ccccc5Cl)cccn43)(CC1)C2` [Number 75], the Specificity [3, 4] is given as 11β- HSD1 > 2.
For `O=C(NC1C2CC3CC(C2)CC1C3)N1CCCCC1` (stereo not shown) [Number 76], the Specificity [3, 4] is given as 11β- HSD1 > 2.
For `O=C(O)C[C@H]1CC2(CCN(C(=O)NC3C4CC5CC(C4)CC3C5)CC2)c2c(Br)cccc21` (stereo partly shown) [Number 77], the Specificity [3, 4] is given as 11β- HSD1 > 2.
For `O=C(OC1C2CC3CC(C2)CC1C3)N1CCCCC1` (stereo not shown) [Number 78], the Specificity [3, 4] is listed as 11β- HSD1 > 2.
For `N#Cc1cccnc1N[C@@H]1CCN(C(=O)O[C@H]2C3CC4CC2C[C@@](C(N)=O)(C4)C3)C1` [Number 79], the Specificity [3, 4] is given as 11β- HSD1 > 2.
For `Cc1cccc(N2CCC(C)(c3ccccc3)OC2=O)c1` (stereo not shown) [Number 80], the Specificity [3] is listed as 11β- HSD1 > 2.
For `C[C@@H](c1ccc(-c2ccc(F)cc2F)cc1)N1CC[C@](CCO)(c2ccc(F)cc2)OC1=O` [Number 81], the Specificity [3] is given as 11β- HSD1 > 2.
For `Cc1c(Cl)cccc1S(=O)(=O)NCc1ccc(C(=O)N2C[C@@H](C)O[C@@H](C)C2)cc1` [Number 82], the Specificity [3, 4] is given as 11β- HSD1 > 2.
In the case of `CCCN(C(=O)c1ccc(CNS(=O)(=O)c2cccc(Cl)c2)cc1)C1CCCCCC1` [Number 83], the Specificity [3, 4] is listed as 11β- HSD1 > 2.
For `CCN(CC)C(=O)C1CCCN(S(=O)(=O)c2cccc(Cl)c2C)C1` (stereo not shown) [Number 84], the Specificity [3, 4] is listed as 11β- HSD1 > 2.
For `CN(C(=O)c1csc(CNS(=O)(=O)c2cccc(Cl)c2)n1)C1CCCCCC1` [Number 85], the Specificity [3, 4] is given as 11β- HSD1 > 2.
In the case of `CN(C(=O)N1CCC(CN2C(=O)Nc3ccc(Cl)cc3S2(=O)=O)CC1)C1CCCCCC1` [Number 86], the Specificity [3, 4] is given as 11β- HSD1 > 2.
For `Cc1c(Cl)cccc1S(=O)(=O)N1CCC[C@@H](C(=O)N[C@H]2C[C@@H]3CC[C@@]2(C)C3(C)C)C1` [Number 87], the Specificity [3, 4] is given as 11β- HSD1 > 2.
For `Cc1c(Cl)cccc1S(=O)(=O)N1CCCC[C@@H]1C(=O)N[C@H]1C2CC3CC1C[C@](O)(C3)C2` [Number 88], the Specificity [3] is listed as 11β- HSD1 > 2.
For `Cc1c(Cl)cccc1S(=O)(=O)N1CCCC[C@@H]1C(=O)N[C@H]1C2CC3CC1C[C@](O)(C3)C2` [Number 89], the Specificity [3] is given as 11β- HSD1 > 2.
For `C[C@]1(C(=O)N[C@H]2C3CC4CC2C[C@@](O)(C4)C3)CCCN1S(=O)(=O)c1cccc2cccnc12` [Number 90], the Specificity [3, 4] is given as 11β- HSD1 > 2.
For `O=C(CN1C(C(=O)c2ccccc2)=C(O)c2ccccc2S1(=O)=O)c1ccccc1` [Number 91], the Specificity [3, 4] is given as 11β- HSD1 > 2.
For `O=C(O)CC1(CC(=O)NCc2ccc(F)cc2Cl)CCCC1` [Number 93], the Specificity [3, 4] is given as 11β- HSD1 > 2.
For `CC(C)(CC(=O)NC1CC1)CC(=O)N[C@H]1C2CC3CC1C[C@@](O)(C3)C2` [Number 94], the Specificity [3, 4] is given as 11β- HSD1 > 2.
For `O=C1CC2(CCN(C(=O)C3(c4ccccc4)CC3)CC2)Oc2ccc(F)cc21` [Number 95], the Specificity [3, 4] is given as 11β- HSD1 > 2.
For `O=C(N1CCC2(CCCCC2)C1)C1(c2ccccc2)CC1` [Number 96], the Specificity [3, 4] is given as 11β- HSD1 > 2.
For `COc1ccc(C(=O)N2CCC(c3c[nH]c4ccccc34)C2)c(C)c1` (stereo not shown) [Number 97], the Specificity [3, 4] is listed as 11β- HSD1 > 2.
For `CC(C)(C(=O)N1CCC(c2c[nH]c3ncccc23)C1)c1ccc(Cl)cc1` (stereo not shown) [Number 98], the Specificity [3, 4] is listed as 11β- HSD1 > 2.
In the case of `O=C(N1CCC(c2c[nH]cn2)CC1)N1CCCc2ccccc21` [Number 99], the Specificity [3, 4] is listed as 11β- HSD1 > 2.
In the case of `COc1ccc(-c2cnc(N3CCN(C(=O)N4CCC(c5cn[nH]c5)C4)c4ccccc43)nc2)cc1` (stereo not shown) [Number 100], the Specificity [3, 4] is given as 11β- HSD1 > 2.
For `CC(C)(C)N1CCN(c2ccc(N3CCN(C(=O)N[C@H]4C5CC6CC4C[C@@](C(N)=O)(C6)C5)c4ccccc43)nc2)CC1` [Number 101], the Specificity [3, 4] is listed as 11β- HSD1 > 2.
For `O=S1(=O)N=C(NC2CCCCC2)O[C@H]2CCCC[C@H]21` [Number 102], the Specificity [3] is given as 11β- HSD1 > 2.
For `CC1(C)OC(N[C@@H](CCO)c2ccc(F)cc2)=NS(=O)(=O)C1(C)C` [Number 103], the Specificity [3] is given as 11β- HSD1 > 2.
For `O=C(Nc1cccc(C(=O)N2CCC[C@H]3CCCC[C@@H]32)c1)c1ccccc1` [Number 104], the Specificity [3] is listed as 11β- HSD1 > 2.
In the case of `COc1cc(C(=O)Nc2ccc(C(=O)N3CCCCC3)c(O)c2)cc(OC)c1OC` [Number 105], the Specificity [3, 4] is listed as 11β- HSD1 > 2.
For `O=C(Nc1ccc(C(=O)N2CCC[C@H]3CCCC[C@@H]32)c2ccccc12)c1ccc(Cl)cc1Cl` [Number 106], the Specificity [3, 4] is given as 11β- HSD1 > 2.
For `COc1ccc(C(=O)N2CCCC(c3ccccc3)CC2)cc1` (stereo not shown) [Number 107], the Specificity [3, 4] is listed as 11β- HSD1 > 2.
For `COC1(C)CCCN(S(=O)(=O)c2ccc(C(C)(C)C)cc2)CC1` (stereo not shown) [Number 108], the Specificity [3, 4] is given as 11β- HSD1 > 2.
For `CC(C)(C)n1ncc2c1CCCN([C@H]1C3CC4CC1C[C@@](O)(C4)C3)C2=O` [Number 109], the Specificity [3, 4] is given as 11β- HSD1 > 2.
In the case of `CC1(C)CCN([C@H]2C3CC4CC2C[C@@](O)(C4)C3)C(=O)c2cnn(-c3ccc(Cl)cc3)c21` [Number 110], the Specificity [3, 4] is listed as 11β- HSD1 > 2.
For `CCN1CCN(C(=O)C23CC4CC(C2)CC(c2ccc(C)cc2)(C4)C3)CC1` [Number 111], the Specificity [3, 4] is given as 11β- HSD1 > 2.
In the case of `Cc1ccc(-n2nnnc2SCC(=O)C(C)(C)C)c(C)c1` [Number 112], the Specificity [3, 4] is listed as 11β- HSD1 > 2.
In the case of `O=C(CSc1nnnn1-c1cccc(Cl)c1)c1ccccc1` [Number 113], the Specificity [3, 4] is listed as 11β- HSD1 > 2.
For `CS(=O)(=O)NCCC(=O)N1CCC(c2cc(C(=O)N3CCC[C@H]4CCCC[C@H]43)cs2)CC1` [Number 114], the Specificity [3, 4] is given as 11β- HSD1 > 2.
For `COc1ccc2nc(NS(=O)(=O)c3ccccc3)sc2c1` [Number 115], the Specificity [3, 4] is listed as 11β- HSD1 > 2.
For `CC(C)(Oc1ccc(Cl)cc1)C(=O)Nc1nnn[nH]1` [Number 116], the Specificity [3, 4] is given as 11β- HSD1 > 2.
For `Cc1nc2c(Cl)c(NS(=O)(=O)c3cc(Cl)ccc3Cl)ccc2s1` [Number 117], the Specificity [3, 4] is given as 11β- HSD1 > 2.
For `O=C(Nc1ccc2scnc2c1)c1cc(Cl)cc(Cl)c1` [Number 118], the Specificity [3, 4] is listed as 11β- HSD1 > 2.
For `CN(Cc1cccs1)C(=O)C12CC3CC(CC(C3)C1)C2` [Number 119], the Specificity [3, 4] is given as 11β- HSD1 > 2.
In the case of `Cc1ccc(C2(C(=O)N(C)Cc3cccs3)CC2)cc1` [Number 120], the Specificity [3, 4] is given as 11β- HSD1 > 2.
In the case of `CN(C)C(=O)c1ccc(COCC(=O)C23CC4CC(CC(C4)C2)C3)cc1` [Number 121], the Specificity [3, 4] is given as 11β- HSD1 > 2.
In the case of `COc1cccc(C(=O)CSc2nnc(C)s2)c1` [Number 123], the Specificity [3, 4] is given as 11β- HSD1 > 2.
For `Cn1cnnc1SCC(=O)C12CC3CC(CC(C3)C1)C2` [Number 124], the Specificity [3, 4] is given as 11β- HSD1 > 2.
For `Cn1c(N2CCN(S(=O)(=O)c3ccc(C(C)(C)C)cc3)CC2)nc2ccccc21` [Number 125], the Specificity [3, 4] is listed as 11β- HSD1 > 2.
For `Cc1ccc(S(=O)(=O)N2CCN(c3nc4ccccc4n3C)CC2)cc1` [Number 126], the Specificity [3, 4] is listed as 11β- HSD1 > 2.
In the case of `CC1(C)[C@@H](O)CC[C@]2(C)[C@H]3C(=O)C=C4[C@@](C)(CC[C@@]5(C)CC[C@@]6(C)C[C@@]45OC6=O)[C@]3(C)CC[C@@H]12` [Number 248], the Specificity [3, 4] is listed as 11β- HSD1 > 2.
For `CC(=O)O[C@H]1CC[C@]2(C)[C@H]3C(=O)C=C4[C@H]5C[C@@](C)(NS(C)(=O)=O)CC[C@]5(C)CC[C@@]4(C)[C@]3(C)CC[C@H]2C1(C)C` [Number 251], the Specificity [3, 4] is given as 11β- HSD1 > 2.
In the case of `CCOc1ccc(Nc2ccc(/C(=C3C=C/C(=[N+](/CC)Cc4cccc(S(=O)(=O)[O-])c4)C=C/3C)c3ccc(N(CC)Cc4cccc(S(=O)(=O)[O-])c4)cc3C)cc2)cc1.[Na+]` [Number 256, Acid blue 90, Coomassie Brilliant Blue G], the “inhibition of Pannexin 1” value [1] is listed as “most selective and least detrimental Pannexin 1 inhibitor”.
For `Nc1ncnc2c1ncn2[C@@H]1O[C@H](COP(=O)(O)OP(=O)(O)OP(=O)(O)O)C(OC(=O)c2ccc(C(=O)c3ccccc3)cc2)C1O` (stereo partly shown) [Number 265, 2′(3′)-O-(4-Benzoylbenzoyl)adenosine 5′-triphosphate triethylammonium salt], the “inhibition of Pannexin 1” value [1] is listed as “inhibit Pannexin 1 more effectively than AYP”.
In the case of `O=C(O)c1ccccc1Nc1cccc(C(F)(F)F)c1` [flufenamic acid], the “inhibition of Pannexin 1” value [1] is given as “found to inhibit the channel”.
